Laboratory results from ChEMBL document CHEMBL5678810.

Tests used:
[1] = target: Tyrosine-protein kinase JAK1 (Homo sapiens) (UniProt P23458); experiment: Inhibition of T7 bacteriophage fused human JAK1JH2 pseudokinase domain at 10 uM by KINOMEscan analysis relative to control
[2] = target: Phosphatidylinositol 4,5-bisphosphate 3-kinase catalytic subunit beta isoform (Homo sapiens) (UniProt P42338); experiment: Inhibition of T7 bacteriophage fused human PIK3CB at 10 uM by KINOMEscan analysis relative to control
[3] = test system: Tyrosine-protein kinase ABL1 (Homo sapiens), P00519 [F317I]; experiment: Inhibition of T7 bacteriophage fused human phosphorylated ABL1 F317I mutant at 10 uM by KINOMEscan analysis relative to control
[4] = target: Serine/threonine-protein kinase SIK3 (Homo sapiens) (UniProt Q9Y2K2); experiment: Inhibition of T7 bacteriophage fused human QSK at 10 uM by KINOMEscan analysis relative to control
[5] = target: Mitogen-activated protein kinase 3 (Homo sapiens) (UniProt P27361); experiment: Inhibition of T7 bacteriophage fused human ERK1 at 10 uM by KINOMEscan analysis relative to control
[6] = target: Receptor tyrosine-protein kinase erbB-4 (Homo sapiens) (UniProt Q15303); experiment: Inhibition of T7 bacteriophage fused human ERBB4 at 10 uM by KINOMEscan analysis relative to control
[7] = target: Serine/threonine-protein kinase BRSK1 (Homo sapiens) (UniProt Q8TDC3); experiment: Inhibition of T7 bacteriophage fused human BRSK1 at 10 uM by KINOMEscan analysis relative to control
[8] = target: Hormonally up-regulated neu tumor-associated kinase (Homo sapiens) (UniProt P57058); experiment: Inhibition of T7 bacteriophage fused human HUNK at 10 uM by KINOMEscan analysis relative to control
[9] = target: Epidermal growth factor receptor (Homo sapiens) (UniProt P00533); experiment: Inhibition of T7 bacteriophage fused human EGFR at 10 uM by KINOMEscan analysis relative to control; values are per cent of control
[10] = target: Serine/threonine-protein kinase DCLK1 (Homo sapiens) (UniProt O15075); experiment: Inhibition of T7 bacteriophage fused human DCAMKL1 at 10 uM by KINOMEscan analysis relative to control; values are per cent of control
[11] = target: Dual specificity mitogen-activated protein kinase kinase 3 (Homo sapiens) (UniProt P46734); experiment: Inhibition of T7 bacteriophage fused human MEK3 at 10 uM by KINOMEscan analysis relative to control; values are per cent of control
[12] = target: LIM domain kinase 1 (Homo sapiens) (UniProt P53667); experiment: Inhibition of T7 bacteriophage fused human LIMK1 at 10 uM by KINOMEscan analysis relative to control; values are per cent of control
[13] = target: Mitogen-activated protein kinase kinase kinase 9 (Homo sapiens) (UniProt P80192); experiment: Inhibition of T7 bacteriophage fused human MLK1 at 10 uM by KINOMEscan analysis relative to control; values are per cent of control
[14] = test system: Epidermal growth factor receptor (Homo sapiens), P00533 [UNDEFINED MUTATION]; experiment: Inhibition of T7 bacteriophage fused human EGFR L747/T751del/Sins mutant at 10 uM by KINOMEscan analysis relative to control
[15] = target: Serine/threonine-protein kinase Nek11 (Homo sapiens) (UniProt Q8NG66); experiment: Inhibition of T7 bacteriophage fused human NEK11 at 10 uM by KINOMEscan analysis relative to control
[16] = target: Mitogen-activated protein kinase kinase kinase kinase 4 (Homo sapiens) (UniProt O95819); experiment: Inhibition of T7 bacteriophage fused human MAP4K4 at 10 uM by KINOMEscan analysis relative to control; values are per cent of control
[17] = target: Serine/threonine-protein kinase PknB (Mycobacterium tuberculosis) (UniProt P9WI81); experiment: Inhibition of T7 bacteriophage fused […] tuberculosis PKNB at 10 uM by KINOMEscan analysis relative to control
[18] = target: cAMP-dependent protein kinase catalytic subunit beta (Homo sapiens) (UniProt P22694); experiment: Inhibition of T7 bacteriophage fused human PKAC-beta at 10 uM by KINOMEscan analysis relative to control
[19] = test system: Epidermal growth factor receptor (Homo sapiens), P00533 [L858R]; experiment: Inhibition of T7 bacteriophage fused human EGFR L858R mutant at 10 uM by KINOMEscan analysis relative to control; values are per cent of control
[20] = test system: Phosphatidylinositol 4,5-bisphosphate 3-kinase catalytic subunit alpha isoform (Homo sapiens), P42336 [E542K]; experiment: Inhibition of T7 bacteriophage fused human PIK3CA E542K mutant at 10 uM by KINOMEscan analysis relative to control
[21] = target: Serine/threonine-protein kinase D2 (Homo sapiens) (UniProt Q9BZL6); experiment: Inhibition of T7 bacteriophage fused human PRKD2 at 10 uM by KINOMEscan analysis relative to control
[22] = target: MAP kinase-interacting serine/threonine-protein kinase 1 (Homo sapiens) (UniProt Q9BUB5); experiment: Inhibition of T7 bacteriophage fused human MKNK1 at 10 uM by KINOMEscan analysis relative to control; values are per cent of control
[23] = test system: Mast/stem cell growth factor receptor Kit (Homo sapiens), P10721 [D816V]; experiment: Inhibition of T7 bacteriophage fused human KIT D816V mutant at 10 uM by KINOMEscan analysis relative to control
[24] = test system: Serine/threonine-protein kinase B-raf (Homo sapiens), P15056 [V600E]; experiment: Inhibition of T7 bacteriophage fused human BRAF V600E mutant at 10 uM by KINOMEscan analysis relative to control
[25] = target: Phosphatidylinositol 4-phosphate 3-kinase C2 domain-containing subunit beta (Homo sapiens) (UniProt O00750); experiment: Inhibition of T7 bacteriophage fused human PIK3C2B at 10 uM by KINOMEscan analysis relative to control
[26] = target: Serine/threonine-protein kinase ICK (Homo sapiens) (UniProt Q9UPZ9); experiment: Inhibition of T7 bacteriophage fused human ICK at 10 uM by KINOMEscan analysis relative to control; values are per cent of control
[27] = target: Ephrin type-B receptor 6 (Homo sapiens) (UniProt O15197); experiment: Inhibition of T7 bacteriophage fused human EPHB6 at 10 uM by KINOMEscan analysis relative to control
[28] = target: Glycogen synthase kinase-3 beta (Homo sapiens) (UniProt P49841); experiment: Inhibition of T7 bacteriophage fused human GSK3B at 10 uM by KINOMEscan analysis relative to control; values are per cent of control
[29] = target: Serine/threonine-protein kinase Chk2 (Homo sapiens) (UniProt O96017); experiment: Inhibition of CHK2 Lys2 labeling site in human PC-3 cell lysate at 10 uM by KiNativ profiling analysis relative to control; format: subcellular

Sequence of Hormonally up-regulated neu tumor-associated kinase (Homo sapiens) (P57058 whole entry, the tested form may be a part): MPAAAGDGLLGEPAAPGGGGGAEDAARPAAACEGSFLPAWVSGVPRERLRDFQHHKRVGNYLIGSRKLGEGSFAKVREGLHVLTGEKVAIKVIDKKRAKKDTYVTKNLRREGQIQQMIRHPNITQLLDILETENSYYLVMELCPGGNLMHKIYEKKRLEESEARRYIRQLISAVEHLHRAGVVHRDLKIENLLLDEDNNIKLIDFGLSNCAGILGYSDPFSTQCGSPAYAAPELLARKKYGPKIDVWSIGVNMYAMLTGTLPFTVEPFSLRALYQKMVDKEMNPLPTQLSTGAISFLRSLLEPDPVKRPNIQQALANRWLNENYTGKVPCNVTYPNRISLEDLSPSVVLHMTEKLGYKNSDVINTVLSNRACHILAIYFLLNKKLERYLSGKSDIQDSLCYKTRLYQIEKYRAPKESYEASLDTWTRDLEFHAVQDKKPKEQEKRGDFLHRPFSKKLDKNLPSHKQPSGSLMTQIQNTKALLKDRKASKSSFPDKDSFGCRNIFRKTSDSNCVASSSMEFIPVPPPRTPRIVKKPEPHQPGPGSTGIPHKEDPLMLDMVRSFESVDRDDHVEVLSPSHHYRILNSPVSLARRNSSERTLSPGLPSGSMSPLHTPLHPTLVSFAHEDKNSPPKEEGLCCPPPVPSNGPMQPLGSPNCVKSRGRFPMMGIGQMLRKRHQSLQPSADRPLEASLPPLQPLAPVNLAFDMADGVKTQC
Sequence of Serine/threonine-protein kinase PknB (Mycobacterium tuberculosis) (P9WI81 whole entry, the tested form may be a part): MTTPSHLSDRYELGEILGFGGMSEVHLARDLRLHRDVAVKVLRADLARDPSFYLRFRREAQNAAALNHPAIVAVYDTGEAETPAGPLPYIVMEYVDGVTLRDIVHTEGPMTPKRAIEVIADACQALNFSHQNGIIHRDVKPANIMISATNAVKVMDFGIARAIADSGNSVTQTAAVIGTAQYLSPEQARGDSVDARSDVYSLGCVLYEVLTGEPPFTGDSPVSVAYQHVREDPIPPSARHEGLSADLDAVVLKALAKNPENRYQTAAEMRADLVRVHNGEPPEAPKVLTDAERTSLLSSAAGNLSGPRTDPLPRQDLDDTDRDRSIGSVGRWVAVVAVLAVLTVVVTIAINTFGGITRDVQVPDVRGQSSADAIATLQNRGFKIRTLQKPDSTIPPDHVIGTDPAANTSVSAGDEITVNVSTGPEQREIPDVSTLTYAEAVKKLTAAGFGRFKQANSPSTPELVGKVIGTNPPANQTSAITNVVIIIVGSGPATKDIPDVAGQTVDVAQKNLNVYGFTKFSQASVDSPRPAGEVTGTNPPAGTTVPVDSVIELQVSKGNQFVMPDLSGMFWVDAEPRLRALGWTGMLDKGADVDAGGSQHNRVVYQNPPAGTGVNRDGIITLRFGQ
Sequence of Serine/threonine-protein kinase BRSK1 (Homo sapiens) (Q8TDC3 whole entry, the tested form may be a part): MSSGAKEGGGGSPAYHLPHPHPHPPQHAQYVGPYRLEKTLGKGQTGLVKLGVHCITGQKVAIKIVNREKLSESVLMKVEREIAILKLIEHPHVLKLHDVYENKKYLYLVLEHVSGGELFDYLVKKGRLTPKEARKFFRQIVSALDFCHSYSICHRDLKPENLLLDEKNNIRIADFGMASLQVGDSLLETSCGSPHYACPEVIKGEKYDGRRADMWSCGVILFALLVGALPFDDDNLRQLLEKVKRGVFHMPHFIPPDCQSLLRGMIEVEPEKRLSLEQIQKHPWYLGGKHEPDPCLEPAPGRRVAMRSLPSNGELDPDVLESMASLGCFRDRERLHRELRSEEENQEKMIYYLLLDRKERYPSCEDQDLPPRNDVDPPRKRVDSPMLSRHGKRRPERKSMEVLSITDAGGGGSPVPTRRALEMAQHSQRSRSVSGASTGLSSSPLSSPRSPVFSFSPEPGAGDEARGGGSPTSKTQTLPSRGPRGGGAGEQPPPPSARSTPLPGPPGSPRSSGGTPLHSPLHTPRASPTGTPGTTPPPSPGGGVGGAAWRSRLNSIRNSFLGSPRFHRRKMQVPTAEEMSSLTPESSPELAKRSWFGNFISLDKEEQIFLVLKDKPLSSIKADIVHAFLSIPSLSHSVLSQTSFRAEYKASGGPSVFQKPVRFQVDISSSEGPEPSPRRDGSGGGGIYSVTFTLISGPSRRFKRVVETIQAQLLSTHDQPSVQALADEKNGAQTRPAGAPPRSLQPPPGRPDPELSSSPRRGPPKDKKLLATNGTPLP
Sequence of Mitogen-activated protein kinase kinase kinase 9 (Homo sapiens) (P80192 whole entry, looked up, the tested form may be a part): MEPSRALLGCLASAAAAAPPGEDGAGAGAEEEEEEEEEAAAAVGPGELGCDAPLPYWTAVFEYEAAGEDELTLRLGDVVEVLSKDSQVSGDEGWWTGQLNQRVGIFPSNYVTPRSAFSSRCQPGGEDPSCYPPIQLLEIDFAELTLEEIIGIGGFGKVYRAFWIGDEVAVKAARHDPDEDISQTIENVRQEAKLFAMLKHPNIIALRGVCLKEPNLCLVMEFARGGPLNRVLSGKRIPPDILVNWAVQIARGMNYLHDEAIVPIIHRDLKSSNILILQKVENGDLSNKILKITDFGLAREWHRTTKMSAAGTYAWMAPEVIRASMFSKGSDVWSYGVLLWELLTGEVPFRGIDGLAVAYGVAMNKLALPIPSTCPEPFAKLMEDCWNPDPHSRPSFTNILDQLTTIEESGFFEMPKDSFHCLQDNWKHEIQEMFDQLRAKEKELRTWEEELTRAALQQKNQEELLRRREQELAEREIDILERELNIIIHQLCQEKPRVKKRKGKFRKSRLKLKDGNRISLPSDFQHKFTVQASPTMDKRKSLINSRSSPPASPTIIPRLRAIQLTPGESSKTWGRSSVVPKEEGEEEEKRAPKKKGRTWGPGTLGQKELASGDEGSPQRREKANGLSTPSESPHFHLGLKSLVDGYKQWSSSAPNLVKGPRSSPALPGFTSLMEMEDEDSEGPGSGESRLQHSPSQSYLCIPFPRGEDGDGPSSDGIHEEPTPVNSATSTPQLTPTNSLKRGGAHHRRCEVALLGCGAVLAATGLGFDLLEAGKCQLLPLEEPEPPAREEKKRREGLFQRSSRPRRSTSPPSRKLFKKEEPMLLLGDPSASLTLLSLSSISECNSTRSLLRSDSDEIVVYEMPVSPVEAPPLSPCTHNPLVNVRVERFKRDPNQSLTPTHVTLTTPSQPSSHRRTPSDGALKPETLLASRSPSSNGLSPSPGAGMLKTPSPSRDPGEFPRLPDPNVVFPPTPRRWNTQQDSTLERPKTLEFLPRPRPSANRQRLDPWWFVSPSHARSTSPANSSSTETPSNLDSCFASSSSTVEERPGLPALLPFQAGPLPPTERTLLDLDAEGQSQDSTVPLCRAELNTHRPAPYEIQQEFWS
Sequence of Tyrosine-protein kinase JAK1 (Homo sapiens) (P23458 whole entry, the tested form may be a part, canonical isoform): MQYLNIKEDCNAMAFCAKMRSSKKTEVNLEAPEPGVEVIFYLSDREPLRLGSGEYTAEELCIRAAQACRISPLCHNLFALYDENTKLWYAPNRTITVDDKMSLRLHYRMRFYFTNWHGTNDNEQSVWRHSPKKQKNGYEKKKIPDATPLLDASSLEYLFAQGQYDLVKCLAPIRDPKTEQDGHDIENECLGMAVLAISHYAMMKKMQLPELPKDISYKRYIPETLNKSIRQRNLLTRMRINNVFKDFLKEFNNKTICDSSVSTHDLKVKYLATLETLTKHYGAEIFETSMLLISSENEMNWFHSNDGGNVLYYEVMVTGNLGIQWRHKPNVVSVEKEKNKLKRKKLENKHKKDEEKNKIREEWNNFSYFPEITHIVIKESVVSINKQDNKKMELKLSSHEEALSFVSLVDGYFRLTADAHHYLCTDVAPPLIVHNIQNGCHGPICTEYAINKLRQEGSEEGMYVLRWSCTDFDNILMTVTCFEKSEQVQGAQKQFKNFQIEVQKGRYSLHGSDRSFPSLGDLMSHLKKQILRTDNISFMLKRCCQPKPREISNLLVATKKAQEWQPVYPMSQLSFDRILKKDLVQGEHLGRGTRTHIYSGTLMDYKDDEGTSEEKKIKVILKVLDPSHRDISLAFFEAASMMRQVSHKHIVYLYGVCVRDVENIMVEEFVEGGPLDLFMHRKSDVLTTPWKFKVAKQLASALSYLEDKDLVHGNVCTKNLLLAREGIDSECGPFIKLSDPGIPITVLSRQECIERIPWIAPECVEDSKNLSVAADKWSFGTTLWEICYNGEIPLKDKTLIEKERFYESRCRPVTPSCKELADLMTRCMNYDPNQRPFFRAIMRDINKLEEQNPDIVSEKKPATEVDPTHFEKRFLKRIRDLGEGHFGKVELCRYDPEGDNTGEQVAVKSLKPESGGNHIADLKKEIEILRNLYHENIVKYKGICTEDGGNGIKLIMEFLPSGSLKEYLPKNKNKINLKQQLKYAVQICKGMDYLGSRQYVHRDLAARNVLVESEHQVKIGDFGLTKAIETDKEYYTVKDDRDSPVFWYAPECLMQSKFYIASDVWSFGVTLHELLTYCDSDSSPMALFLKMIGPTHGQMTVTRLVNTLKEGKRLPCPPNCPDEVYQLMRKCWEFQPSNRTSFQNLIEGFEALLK
Sequence of Serine/threonine-protein kinase Nek11 (Homo sapiens) (Q8NG66 whole entry, the tested form may be a part): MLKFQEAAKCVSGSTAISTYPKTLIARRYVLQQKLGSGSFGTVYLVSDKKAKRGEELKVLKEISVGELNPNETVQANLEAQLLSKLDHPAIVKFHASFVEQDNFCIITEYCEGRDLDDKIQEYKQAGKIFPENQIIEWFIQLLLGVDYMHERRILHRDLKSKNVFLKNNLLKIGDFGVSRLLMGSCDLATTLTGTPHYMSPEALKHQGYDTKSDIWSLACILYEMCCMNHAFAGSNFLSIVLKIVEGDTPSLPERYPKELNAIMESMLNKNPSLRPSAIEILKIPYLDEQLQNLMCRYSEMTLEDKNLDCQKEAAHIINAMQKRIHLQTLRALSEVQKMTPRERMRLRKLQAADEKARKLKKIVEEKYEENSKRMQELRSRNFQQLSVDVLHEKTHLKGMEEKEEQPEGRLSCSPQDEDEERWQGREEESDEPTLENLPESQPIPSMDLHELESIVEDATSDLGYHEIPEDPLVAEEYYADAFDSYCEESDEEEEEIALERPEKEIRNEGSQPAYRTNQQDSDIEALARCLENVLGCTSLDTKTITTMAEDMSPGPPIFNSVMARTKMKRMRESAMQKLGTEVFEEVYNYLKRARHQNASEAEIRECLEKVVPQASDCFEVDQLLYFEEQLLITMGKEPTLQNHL

How did the inhibition [1] turn out when COc1cc(N2CCC(N3CCN(C)CC3)CC2)ccc1Nc1ncc2c(n1)N(C)c1ccccc1C(=O)N2C was run?
Its inhibition is 92%.

What about the inhibition [2] of the same compound?
Its inhibition is 96%.

What about the inhibition [3] of the same compound?
Its inhibition is 17%.

And the inhibition [4]?
Its inhibition is 100%.

What about the inhibition [5] of the same compound?
Its inhibition is 100%.

What about the inhibition [6] of the same compound?
Its inhibition is 100%.

And the inhibition [7]?
Its inhibition is 81%.

What about the inhibition [8] of the same compound?
Its inhibition is 100%.

And the residual activity [9]?
The residual activity was 84%.

And the residual activity [10]?
The residual activity was 4.2%.

What about the residual activity [11] of the same compound?
Its residual activity is 75%.

What about the residual activity [12] of the same compound?
The residual activity was 95%.

And the residual activity [13]?
The residual activity was 93%.

And the inhibition [14]?
Its inhibition is 100%.

And the inhibition [15]?
Its inhibition is 100%.

And the residual activity [16]?
The residual activity was 85%.

What about the inhibition [17] of the same compound?
Its inhibition is 100%.

What about the inhibition [18] of the same compound?
Its inhibition is 100%.

And the residual activity [19]?
Its residual activity is 79%.

And the inhibition [20]?
The inhibition was 77%.

And the inhibition [21]?
Its inhibition is 59%.

And the residual activity [22]?
The residual activity was 50%.

What about the inhibition [23] of the same compound?
Its inhibition is 72%.

What about the inhibition [24] of the same compound?
Its inhibition is 100%.

And the inhibition [25]?
Its inhibition is 100%.

What about the residual activity [26] of the same compound?
The residual activity was 90%.

And the inhibition [27]?
The inhibition was 31%.

What about the residual activity [28] of the same compound?
Its residual activity is 88%.

How did the inhibition [29] turn out when COc1cc(C(=O)N2CCC(N3CCN(C)CC3)CC2)ccc1Nc1ncc2c(n1)N(C1CCCC1)c1ccccc1C(=O)N2C was run?
Its inhibition is 0%.
